For data set [1] the following is noted: 5 μL, twice-weekly or once-daily, 3 months.
For a further data set, the system named is lower eyelid. Particulars: rabbit, in vivo. An excerpt:
On a subsequent study to Example 6, concentrations ranging from 0.5 wt. % to 2.5 wt. % were used on New-Zealand rabbits, once daily to twice weekly for 28 days.

A further data set relates to rabbit dermis. The following applies: in vivo; cited from earlier work.
The subject of data set [2] is lower eyelid of the right eye. As to the method:
The eye was treated with lubricants and local NSAID, and the keratitis resolved within 48 hours.

Data set [3] has as its system seborrheic blepharitis patients. The following applies: cited from earlier work.
The subject of data set [4] is lower eyelid of the rabbits. The following applies: rabbit, in vivo. As to the method:
The composition is prepared by the combination of selenium disulfide (SeS2) in combination with Petrolatum base (and in the absence of surface acting agents). Compositions comprising various concentrations of selenium disulfide are prepared, such as 0.1 wt. %, 0.5 wt. %, 1 wt. %, 1.5 wt. %, 2 wt. %, and 2.5 wt. %.
Various compositions prepared as described above are administered to the eye or eyelid (e.g., margin thereof) of albino rabbits. Various compositions are administered to distinct cohorts using various treatment protocols, such as based on frequency of administration (e.g., once daily, twice daily, every other day, and once weekly) and volume of administration (e.g., <25 μL or >25 μL per administration). Compositions lacking selenium disulfide are administered to a separate cohort to establish a control.
Albino rabbits are evaluated, and an accurate volume of the composition is ejected from a device (e.g., micropipette) and is delivered to the lower eyelid of the rabbits (FIG. 2). […] In one example, the volume is ˜25 μL (equivalent to 20 mg in weight). The rabbits are examined daily.

The structures appear in SMILES notation. Read-outs that look alike come from different tables or passages of the source.

As to `S=[Se]=S` [SeS2, selenium disulfide], in data set [1] (0.1 wt. %, nine patients), the “safety and tolerability (independent Data Review Committee)” value (“safety and tolerability” below) is “safe and well tolerated”. In data set [1] (0.5 wt. %, ten patients), the “safety and tolerability” value was “safe and well tolerated”. Also, the “safety and tolerability” value in data set [1] (1 wt. %, nine patients) was “safe and well tolerated”. Moreover, the “ophthalmic observations compared with Example 6” value in the data set with lower eyelid was “safer”. Further, the dermal irritation entry in the data set with rabbit dermis was “did not appear to be irritant to rabbit dermis”. Besides, the “time until pain was reported” value in data set [2] (2.5 wt. % SeS2 with petrolatum, 25 μL (20 mg), one healthy person) is listed as “About 4 hours”. Besides, the “finding on clinical examination” value in data set [2] (2.5 wt. % SeS2 with petrolatum, 25 μL (20 mg), multiple punctate over the center exposed part of the cornea) is “keratitis was observed”. Further, in data set [2] (2.5 wt. %, 25 μL, eye treated with lubricants and local NSAID), the “time to resolution of keratitis” value was at most 48 h. For the same molecule, in data set [3] (0.5 weight percent ointment (Abbott), all patients complained of burning of the conjunctiva (Rychener)), the “tolerability of ointment on the lids” value is “too strong”. In addition, in data set [3] (human, in vivo), the epithelial keratitis is on record as 6 cases; the “epithelial keratitis persisting as long as a week” value was 1 cases; the “epithelial keratitis persisting for a matter of days” value is recorded as 2 cases; the “epithelial keratitis, transient” value is recorded as 4 cases. Besides, in data set [3] (human, in vivo), the “keratitis, conjunctivitis with erythematous and swollen lids” value is given as “Two”; the “patients developing moderately severe conjunctivitis” value is given as 1%; the “side effect across the studies” value is listed as “self-limiting keratitis”. In data set [4], the “animals with corneal staining” value is listed as 5/6; the “clinical or microscopic findings” value is on record as “no clinical or microscopic findings”; the “signs of keratitis, including red and swollen eyelids” value is “all animals showed signs of keratitis”.

The values above are taken from patent US20220305052A1, “METERED DOSE FOR DISORDERS IN OR AROUND THE EYE” (Azura Ophthalmics Ltd., priority 2019, published 2022).
